Where “and” joins values, the source holds several entries; their conditions need not be identical. Identical values can stand only once.
Legend:
mNAGS-M [1] = target: T1, mNAGS-M (Mus musculus, UniProt Q8R4H7); assay: NAGS activity assay after […] min preincubation at […]-45 °C; type: biochemical; details: 1 mM L-arginine; assayed at 30 °C; allosteric activator; range covers mNAGS-M and mNAGS-C
T1 construct: gene Nags; mature form, mitochondrial targeting signal removed, variable segment kept
T1 sequence (Q8R4H7 51-527): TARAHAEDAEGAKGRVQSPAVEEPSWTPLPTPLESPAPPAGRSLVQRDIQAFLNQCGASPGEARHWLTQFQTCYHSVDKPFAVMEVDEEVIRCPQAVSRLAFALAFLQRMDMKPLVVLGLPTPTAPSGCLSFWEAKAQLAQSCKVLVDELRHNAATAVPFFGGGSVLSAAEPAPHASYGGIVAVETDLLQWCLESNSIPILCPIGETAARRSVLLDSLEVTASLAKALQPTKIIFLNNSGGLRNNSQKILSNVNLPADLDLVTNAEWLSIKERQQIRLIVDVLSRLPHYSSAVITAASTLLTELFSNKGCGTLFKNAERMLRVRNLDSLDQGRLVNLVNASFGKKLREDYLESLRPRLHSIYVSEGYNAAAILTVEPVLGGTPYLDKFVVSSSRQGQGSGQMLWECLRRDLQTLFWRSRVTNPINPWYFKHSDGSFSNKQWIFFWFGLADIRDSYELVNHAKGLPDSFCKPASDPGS

NgNAGS = target: T2, NgNAGS (Neisseria gonorrhoeae, UniProt Q5FAK7); assay: Thermofluor thermal shift, SYPRO Orange; type: binding; details: read-out: change in Tm at 1 mM
T2 construct: gene argA; hexamer
T2 sequence (Q5FAK7 1-436): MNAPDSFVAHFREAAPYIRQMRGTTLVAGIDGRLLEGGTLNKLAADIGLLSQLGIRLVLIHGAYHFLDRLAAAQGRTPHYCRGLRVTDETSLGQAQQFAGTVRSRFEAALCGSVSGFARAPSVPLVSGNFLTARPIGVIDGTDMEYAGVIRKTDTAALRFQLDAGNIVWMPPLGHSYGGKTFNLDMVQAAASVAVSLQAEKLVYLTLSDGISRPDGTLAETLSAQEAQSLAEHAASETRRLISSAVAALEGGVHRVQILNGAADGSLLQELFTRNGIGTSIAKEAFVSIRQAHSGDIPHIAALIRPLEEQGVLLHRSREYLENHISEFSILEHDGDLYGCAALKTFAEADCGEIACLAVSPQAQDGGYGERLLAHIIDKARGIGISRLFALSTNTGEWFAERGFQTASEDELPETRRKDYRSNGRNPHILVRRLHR

mNAGS-M [2] = target: T1, mNAGS-M; assay: Thermofluor thermal shift, SYPRO Orange; type: binding; details: read-out: change in Tm at 10 mM
MmNAGS-K = target: T3, MmNAGS-K (Maricaulis maris, UniProt Q0ASS9); assay: Thermofluor thermal shift, SYPRO Orange; type: binding; details: read-out: change in Tm at 10 mM
T3 construct: gene Mmar10_0365
T3 sequence (Q0ASS9 1-441): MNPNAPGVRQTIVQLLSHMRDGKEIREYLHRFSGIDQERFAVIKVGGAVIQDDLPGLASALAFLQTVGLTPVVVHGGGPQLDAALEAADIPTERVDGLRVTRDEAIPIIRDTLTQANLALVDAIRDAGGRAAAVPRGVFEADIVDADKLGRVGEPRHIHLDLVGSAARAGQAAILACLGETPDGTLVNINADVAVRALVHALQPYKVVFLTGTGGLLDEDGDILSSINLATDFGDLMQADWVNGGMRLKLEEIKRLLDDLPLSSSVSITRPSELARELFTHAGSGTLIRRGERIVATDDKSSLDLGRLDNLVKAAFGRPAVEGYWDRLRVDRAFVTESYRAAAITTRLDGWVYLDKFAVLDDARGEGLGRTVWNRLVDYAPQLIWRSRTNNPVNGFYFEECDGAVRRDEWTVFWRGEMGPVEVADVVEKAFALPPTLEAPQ

XcNAGS-K = target: T4, XcNAGS-K (Xanthomonas campestris, UniProt B0RS52); assay: sedimentation velocity ultracentrifugation and Thermofluor; type: binding; details: 1 mM L-arginine; 10 mM Tris, 50 mM KCl, 1 mM TCEP, pH 8.0, 20 °C (ultracentrifugation); allosteric
T4 construct: gene argB
T4 sequence (B0RS52 1-447): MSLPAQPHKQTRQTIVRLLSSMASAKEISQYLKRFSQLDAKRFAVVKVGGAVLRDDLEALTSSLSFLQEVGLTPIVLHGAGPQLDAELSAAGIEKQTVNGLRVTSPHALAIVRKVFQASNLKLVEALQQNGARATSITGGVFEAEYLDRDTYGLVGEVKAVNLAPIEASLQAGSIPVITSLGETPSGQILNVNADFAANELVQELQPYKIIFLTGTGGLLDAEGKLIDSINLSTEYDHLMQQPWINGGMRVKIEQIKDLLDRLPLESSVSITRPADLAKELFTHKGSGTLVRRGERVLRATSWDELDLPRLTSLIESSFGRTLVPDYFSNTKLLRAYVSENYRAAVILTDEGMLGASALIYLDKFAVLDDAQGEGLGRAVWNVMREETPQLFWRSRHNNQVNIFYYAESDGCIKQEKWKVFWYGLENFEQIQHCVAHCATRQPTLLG

mNAGS-C [3] = target: T5, mNAGS-C (Mus musculus, UniProt Q8R4H7); assay: Thermofluor thermal shift, SYPRO Orange; type: binding; details: read-out: change in Tm at 10 mM
T5 construct: gene Nags; conserved segment only, mitochondrial targeting signal and variable segment removed
T5 sequence (Q8R4H7 84-527 limits assumed): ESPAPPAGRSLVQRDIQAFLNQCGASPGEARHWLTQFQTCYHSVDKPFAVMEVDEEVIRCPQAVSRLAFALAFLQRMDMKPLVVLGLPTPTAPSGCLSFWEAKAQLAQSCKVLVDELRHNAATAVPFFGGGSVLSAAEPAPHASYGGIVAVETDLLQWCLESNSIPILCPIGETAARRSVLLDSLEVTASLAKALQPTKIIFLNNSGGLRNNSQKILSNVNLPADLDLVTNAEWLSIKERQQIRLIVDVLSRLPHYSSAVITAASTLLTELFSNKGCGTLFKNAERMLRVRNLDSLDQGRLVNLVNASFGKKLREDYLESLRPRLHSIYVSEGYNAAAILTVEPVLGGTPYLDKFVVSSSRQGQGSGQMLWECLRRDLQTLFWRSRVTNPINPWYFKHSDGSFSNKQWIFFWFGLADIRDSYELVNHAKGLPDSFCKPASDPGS

mNAGS-C [4] = target: T5, mNAGS-C; assay: NAGS activity assay after […] min preincubation at […]-45 °C; type: biochemical; details: 1 mM L-arginine; assayed at 30 °C; allosteric activator; range covers mNAGS-M and mNAGS-C
[5] = target: bifunctional N-acetylglutamate synthase-kinase from Xanthomonas campestris (Xanthomonas campestris); assay: AUC; sedimentation velocity, c(s) distributions and sw isotherm fitted to a tetramer-octamer association model (octamer to tetramers); without L-arginine; 2-40 uM monomer, 20 °C, 50,000 rpm, 10 mM Tris, 50 mM KCl, 1 mM TCEP, pH 8.0
[6] = target: bifunctional N-acetylglutamate synthase-kinase from Xanthomonas campestris (Xanthomonas campestris); assay: AUC; sedimentation velocity, global fit of raw data with explicit Lamm equation solutions and reaction kinetics, tetramer-octamer model (octamer to tetramers); without L-arginine; 35, 26, 17, 12, 9, 4 and 2 uM monomer, 20 °C, 10 mM Tris, 50 mM KCl, 1 mM TCEP
[7] = target: bifunctional N-acetylglutamate synthase-kinase from Xanthomonas campestris (Xanthomonas campestris); assay: AUC; sedimentation velocity, sw isotherm fitted to a tetramer-octamer association model (octamer to tetramers); with 1 mM L-arginine; 20 °C, 50,000 rpm, 10 mM Tris, 50 mM KCl, 1 mM TCEP, pH 8.0

Row | Molecule | fold increase of specific activity at 1 mM (mNAGS-M [1]) | ΔTm at 1000 µM (NgNAGS) [°C] | ΔTm at 10000 µM (mNAGS-M [2]) [°C] | ΔTm at 10000 µM (MmNAGS-K) [°C] | sedimentation velocity ultracentrifugation and Thermofluor (XcNAGS-K) | ΔTm at 10000 µM (mNAGS-C [3]) [°C] | fold increase of specific activity at 1 mM (mNAGS-C [4]) | Kd [5] [nM] | stoichiometry N [5] | Kd [6] [nM] | half-life for the octamer [6] [min] | log10koff [6] | Kd [7] [nM]
1 | N=C(N)NCCC[C@H](N)C(=O)O [L-arginine] | 1.5- to 4 | ~-2.5 | ~5 | ~10 | equilibrium between XcNAGS-K tetramers and octamers depends on the presence and binding of L-arginine | ~5 | 1.5- to 4 |  |  |  |  |  | 
2 | bifunctional N-acetylglutamate synthase-kinase from Xanthomonas campestris (enzyme) |  |  |  |  |  |  |  | 2900 | 4 and 8 | 2600 | 45 | -3.6 | 37000

— article PMC5146650, “Effect of arginine on oligomerization and stability of N-acetylglutamate synthase” (Scientific Reports, 2016)
